Experimental data: patent publication US11285135B2 (AMGEN INC., priority 2016, dated 2022)
Read-outs that look alike come from different tables or passages of the source.

How the values were obtained:
[1] = biological target: GDP-bound protein (aa 1-169), containing both G12C and C118A amino acid substitutions (Homo sapiens, UniProt P01116, C118A/G12C); experiment: Coupled Nucleotide Exchange Assay (SOS-mediated nucleotide exchange, AlphaScreen); type: biochemical; details: 2 hours compound pre-incubation
Procedure, shortened: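 AlphaScreen signal after SOS (aa 564-1049)/GTP-driven exchange (1 h) on GDP-loaded His-[…] G12C/C118A (aa 1-169), following a 2 h compound pre-incubation in HEPES pH 7.4 buffer with 10 mM MgCl2 and 0.01% Triton X-100. IC50s fitted by 4-parameter logistic model.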

[2] = test system: Phosphorylation of ERK½ in MIA PaCa-2 cells; experiment: Phospho-ERK½ MSD Assay in MIA PaCa-2 cells; type: cell-based; details: 4 hours compound treatment, 10 ng/mL EGF for 10 min, read-out: p-ERK IC50 (MIA PaCa-2)
Procedure, shortened: (§1)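 MIA PaCa-2 or A549 cells (25,000/well, RPMI with 10% FBS) exposed to compound titration for 4 h at 37 °C, then stimulated with 10 ng/mL EGF for 10 min and lysed in RIPA. Phospho-ERK1/2 quantified by MSD whole-cell lysate immunoassay; IC50 from 4-parameter logistic fit.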

[3] = test system: Phosphorylation of ERK½ in A549 cells; experiment: Phospho-ERK½ MSD Assay in A549 cells; type: cell-based; details: 4 hours compound treatment, 10 ng/mL EGF for 10 min, read-out: p-ERK IC50 (A549)
Procedure, shortened: as §1

[4] = Homo sapiens, MIA PaCa-2, MIA PaCa-2 cells

GDP-bound protein (aa 1-169), containing both G12C and C118A amino acid substitutions, sequence (P01116 1-169 isoform P01116-2 G12C/C118A): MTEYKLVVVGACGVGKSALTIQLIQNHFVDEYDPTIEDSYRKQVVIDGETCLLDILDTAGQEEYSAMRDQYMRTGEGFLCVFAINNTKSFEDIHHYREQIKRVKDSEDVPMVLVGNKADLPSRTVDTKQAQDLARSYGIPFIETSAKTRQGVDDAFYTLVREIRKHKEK

Coupled exchange IC50 [1] [µM]	IC50 [2, 4] [µM]	IC50 ([3]; Homo sapiens, A549, A549 cells) [µM]	IC50 ([2]; MIA PaCa-2 cells) [µM]	IC50 ([3]; A549 cells) [µM]	SMILES
0.533	9.2	> 100	–	–	C=CC(=O)N1CCN(c2nnc(-c3c(C)cccc3C)c3cc(-c4c(O)cccc4F)c(Cl)cc23)CC1 [Example 10-7, 1-(4-(7-Chloro-4-(2,6-dimethylphenyl)-6-(2-fluoro-6-hydroxyphenyl)-1-phthalazinyl)-1-piperazinyl)-2-propen-1-one]
0.306	0.078	12.8	–	–	C=CC(=O)N1CCN(c2nc(=O)n(-c3ccccc3C(C)C)c3cc(-c4cc(O)cc5ccccc45)c(Cl)cc23)CC1 [Example 9-13, 6-chloro-7-(3-hydroxy-1-naphthalenyl)-1-(2-(2-propanyl)phenyl)-4-(4-(2-propenoyl)-1-piperazinyl)-2(1H)-quinazolinone]
0.359	6.85	> 100	–	–	C=CC(=O)N1CCN(c2nnc(-c3ccccc3C3CC3)c3cc(-c4c(O)cccc4F)c(Cl)cc23)CC1 [Example 10-10, 1-(4-(7-chloro-4-(2-cyclopropylphenyl)-6-(2-fluoro-6-hydroxyphenyl)-1-phthalazinyl)-1-piperazinyl)-2-propen-1-one]
0.139	0.822	> 100	–	–	C=CC(=O)N1CC(N(C)c2snc3c(F)c(-c4cc(O)cc5ccccc45)c(Cl)cc23)C1 [Example 5-9, 1-(3-((5-Chloro-7-fluoro-6-(3-hydroxynaphthalen-1-yl)benzo[c]isothiazol-3-yl)(methyl)amino)azetidin-1-yl)prop-2-en-1-one]
0.180	0.222	> 100	–	–	C=CC(=O)N1CCN(c2snc3c(F)c(-c4cc(O)cc5ccccc45)c(Cl)cc23)[C@@H](CF)C1 (racemic) [Example 7-2, 1-(4-(5-chloro-7-fluoro-6-(3-hydroxy-1-naphthalenyl)-2,1-benzothiazol-3-yl)-3-(fluoromethyl)-1-piperazinyl)-2-pxopen-1-one]
0.147	0.136	65.6	–	–	C=CC(=O)N1CCN(c2nc(=O)n(-c3ccncc3C3CC3)c3cc(-c4c(C)ccc5[nH]ncc45)c(Cl)cc23)[C@@H](C)C1 [Example 9-9, 6-chloro-1-(3-cyclopropyl-4-pyridinyl)-7-(5-methyl-1H-indazol-4-yl)-4-((2S)-2-methyl-4-(2-propenoyl)-1-piperazinyl)-2(1H)-quinazolinone]
0.542	–	62.3	0.211	–	C=CC(=O)N1CCN(c2nc(=O)n(-c3ccccc3C(C)C)c3cc(-c4c(O)cccc4F)c(Cl)cc23)CC1 [Example 8-1, 6-Chloro-7-(2-fluoro-6-hydroxyphenyl)-1-(2-(2-propanyl)phenyl)-4-(4-(2-propenoyl)-1-piperazanyl)-2(1H)-quinazolinone]

The next lines start with the molecule.

SMILES	Coupled exchange IC50 [1] [µM]	IC50 [2, 4] [µM]	IC50 ([3]; Homo sapiens, A549, A549 cells) [µM]	IC50 ([2]; MIA PaCa-2 cells) [µM]	IC50 ([3]; A549 cells) [µM]
C=CC(=O)N1CCN(c2snc3c(F)c(-c4c(C)ccc5[nH]ncc45)c(Cl)cc23)CC1 [Example 3-5, 1-(4-(5-chloro-7-fluoro-6-(5-methyl-1H-indazol-4-yl)-2,1-benzothiazol-3-yl)-1-piperazinyl)-2-propen-1-one]	0.693	5.26	3.7	–	–
C=CC(=O)N1CCN(c2nc(=O)n(-c3ccccc3C(C)C)c3cc(-c4c(O)cccc4F)c(Cl)cc23)[C@@H](C)C1 (single isomer, unassigned) [Example 8-3-2]	0.340	–	–	0.028	> 100
C=CC(=O)N1CCN(c2snc3c(F)c(-c4c(O)cccc4F)c(Cl)cc23)C(C(F)F)C1 (racemic) [Example 2-9, 1-(4-(5-chloro-7-fluoro-6-(2-fluoro-6-hydroxyphenyl)-2,1-benzothiazol-3-yl)-3-(difluoromethyl)-1-piperazinyl)-2-propen-1-one]	0.301	0.747	> 100	–	–
C=CC(=O)N1CCN(c2snc3c(F)c(-c4c(C)ccc5[nH]ncc45)c(Cl)cc23)[C@H](C(F)F)C1 (racemic) [Example 2-8, 1-(4-(5-chloro-7-fluoro-6-(5-methyl-1H-indazol-4-yl)-2,1-benzothiazol-3-yl)-3-(difluoromethyl)-1-piperazinyl)-2-propen-1-one]	0.361	0.258	> 100	–	–
C=CC(=O)N1CCN(c2snc3c(F)c(-c4c[nH]c5ccccc45)c(Cl)cc23)CC1 [Example 1-2, 1-(4-(5-chloro-7-fluoro-6-(1H-indol-3-yl)-2,1-benzothiazol-3-yl)-1-piperazinyl)-2-propen-1-one]	2.38	6.08	> 100	–	–
C=CC(=O)N1CCN(c2snc3c(F)c(-c4cc(O)ccc4C)c(Cl)cc23)CC1 [Example 3-8, 1-(4-(5-chloro-7-fluoro-6-(5-hydroxy-2-methylphenyl)-2,1-benzothiazol-3-yl)-1-piperazinyl)-2-propen-1-one]	1.07	7.05	> 100	–	–
C=CC(=O)N1CCN(c2snc3c(F)c(-c4c(O)cccc4F)c(Cl)cc23)CC1 [Example 3-6, 1-(4-(5-chloro-7-fluoro-6-(2-fluoro-6-hydroxyphenyl)-2,1-benzothiazol-3-yl)-1-piperazinyl)-2-propen-1-one]	1.05	11.8	> 100	–	–
C=CC(=O)N1CCN(c2snc3c(F)c(-c4cc(O)cc5ccccc45)c(Cl)cc23)C(CCO)C1 (stereo in doubt) [Example 1-11, 1-((3S)-4-(5-chloro-7-fluoro-6-(3-hydroxy-1-naphthalenyl)-2,1-benzothiazol-3-yl)-3-(2-hydroxyethyl)-1-piperazinyl)-2-propen-1-one]	0.695	8.2	> 100	–	–
C=CC(=O)N1CCN(c2snc3cc(-c4c(O)cccc4F)c(Cl)cc23)CC1 [Example 1-6, 1-(4-(5-chloro-6-(2-fluoro-6-hydroxyphenyl)-2,1-benzothiazol-3-yl)-1-piperazinyl)-2-propen-1-one]	2.88	36.2	> 100	–	–
C=CC(=O)N1CCN(c2snc3c(F)c(-c4cc(OC)ccc4Cl)c(Cl)cc23)CC1 [Example 3-9, 1-(4-(5-chloro-6-(2-chloro-5-methoxyphenyl)-7-fluoro-2,1-benzothiazol-3-yl)-1-piperazinyl)-2-propen-1-one]	3.37	9.25	> 33.3	–	–
C=CC(=O)N1CCN(c2snc3c(F)c(-c4cc(O)cc5ccccc45)c(Cl)cc23)C(C(=O)O)C1 (stereo not drawn) [Example 22, 1-(5-chloro-7-fluoro-6-(3-hydroxy-1-naphthalenyl)-2,1-benzothiazol-3-yl)-4-(2-propenoyl)-2-piperazinecarboxylic acid]	0.927	56.1	> 100	–	–
C=CC(=O)N1CCN(c2nc(=O)n(-c3ccccc3C(C)C)c3cc(-c4c(O)cccc4F)c(Cl)cc23)[C@@H](C)C1 [Example 8-3, 6-chloro-7-(2-fluoro-6-hydroxyphenyl)-4-((2S)-2-methyl-4-(2-propenoyl)-1-piperazinyl)-1-(2-(2-propartyl)phenyl)-2(1H)-quinazolinone]	0.783	0.061	> 100	–	–
C=CC(=O)N1CCN(c2snc3c(F)c(-c4cc(O)c(F)cc4Cl)c(Cl)cc23)CC1 [Example 3-18, 1-(4-(5-chloro-6-(2-chloro-4-fluoro-5-hydroxyphenyl)-7-fluoro-2,1-benzothiazol-3-yl)-1-piperazinyl)-2-propen-1-one]	2.60	> 100	> 100	–	–
C=CC(=O)N1CCN(c2snc3c(F)c(-c4cc(O)cc5ccccc45)c(Cl)cc23)[C@@H](C)C1 [Example 1-19, 1-((3S)-4-(5-chloro-7-fluoro-6-(3-hydroxy-1-naphthalenyl)-2,1-benzothiazol-3-yl)-3-methyl-1-piperazinyl)-2-propen-1-one]	0.297	–	> 100	1.33	–
C=CC(=O)N1CCN(c2snc3nc(-c4c(C)ccc5[nH]ncc45)c(Cl)cc23)C(C)C1 (racemic) [Example 2-6, 1-(4-(5-chloro-6-(5-methyl-1H-indazol-4-yl)[1,2]thiazolo[3,4-b]pyridin-3-yl)-3-methyl-1-piperazinyl)-2-propen-1-one]	1.59	2.97	3.7	–	–
C=CC(=O)N1CCN(c2nc(=O)n(-c3ccccc3C(C)C)c3nc(-c4c(O)cccc4F)c(Cl)cc23)[C@@H](C)C1 (single isomer, unassigned) [Example 8-6-1]	0.066	–	–	0.01	> 33.3
C=CC(=O)N1CCN(c2nc(=O)n(-c3ccccc3C(C)C)c3cc(-c4c(O)cccc4F)c(Cl)cc23)CC1 (single isomer, unassigned) [Example 8-1-1, 6-chloro-7-(2-fluoro-6-hydroxyphenyl)-1-(2-(2-propanyl)phenyl)-4-(4-(2-propenoyl)-1-piperazinyl)-2(1H)-quinazolinone]	0.172	–	–	0.046	69.8
